Experimental data as given in patent US8993721B2, “Peptides for targeting apoptotic cells and uses thereof” (Kyungpook National University Industry-Academic Cooperation …, priority 2008, dated 2015).
Entries after “also recorded” stand apart in the source; their conditions may differ. Where no end group is shown, it is not given here.

How the values were obtained:
[1] = test system: etoposide-treated apoptotic cells (A549, H460, HeLa, L132, RAW); assay: Microscopic observation of binding of the peptide to apoptotic cells (Example 3-1); type: cell-based
Description: Cells were cultured in chamber slide (Nalgene Nunc) and treated with 50 μM etoposide (Sigma) for a given period of time (A549 and HeLa cells: for 15 hours, H460 cells: 24 hours, L132 cells: 3 hours, RAW cells: 6 hours) to induce apoptosis. The cells were cultured in RMPI-1640 medium (A549 and H460 cells) or DMEM (HeLa, L132 and RAW cells) containing antibiotics (penicillin and streptomycin) and 10% FBS. All the cells were subcultured every 3 or 4 days. The apoptosis-induced apoptotic cells were washed with PBS and blocked with 1% BSA at 37° C. for 30 minutes. Then, the cells were reacted with 10 μM of the peptide labeled with fluorescein, at 4° C. for 1 hour. After washing, the cells were reacted with an annexin V reaction buffer containing Alexa594-labeled annexin V (Molecular Probes), at room temperature for 15 minutes. The cells were washed with PBS and then fixed with 4% paraformaldehyde for 5 minutes. Thereafter, after counterstaining using the nuclear stain 4′,6-diamidino-2-phenylindole (DAPI), followed by treatment with a mounting solution (Molecular Probes), images of the cells were obtained under a fluorescence microscope (Zeiss).

[2] = test system: aorta of arteriosclerotic Ldlr(−/−) mouse; assay: Molecular imaging of arteriosclerosis (Example 5); type: in vivo
Description: An arteriosclerotic animal model was established by feeding mice, in which low-density lipoprotein (LDL) receptor was deficient (Ldlr(−/−)) genetically, with a high-cholesterol diet for 8 weeks. At the tail vein of the arteriosclerotic mouse and normal mouse, the peptide having an amino sequence represented by SEQ ID NO: 1 (ApoPep-1) or a control peptide, labeled with Cy7.5 NIR fluorescence, was injected at a final concentration of 50 μM, under isoflurane anesthesia. Two hours later, with the mouse anesthetized, in vivo images of the NIR fluorescence were obtained using an Optix exPlore instrument. Following the in vivo imaging, NIR fluorescence was measured […] after isolating the aorta.

[3] = test system: heart of myocardial ischemic rat (ischemia/reperfusion model); assay: Molecular imaging of myocardial ischemia (Example 7); type: in vivo; settings: Cy7.5-labeled peptide i.v. 2 hours after reperfusion; imaged 2 hours after injection
Description: A myocardial ischemia model was established by occluding the coronary artery of a rat, followed by reperfusion (ischemia/reperfusion model). For the operation, a rat was anesthetized by intra-abdominally injecting 10 mg of phenobarbital and, followed by endobronchial intubation, a ventilator was connected. Thereafter, the thorax was cut open to expose the heart. The left anterior descending coronary artery was occluded for 30 minutes using a suture and, then, the blood was allowed to circulate. For a control group (Sham), the same operation was performed, except for the occlusion. Two hours after the reperfusion, the peptide having an amino sequence represented by SEQ ID NO: 1 (ApoPep-1), labeled with Cy7.5 NIR fluorescence, was intravenously injected to the rats of the myocardial ischemia group and the control group. Two hours after the peptide injection, NIR images of the heart portion were obtained. Then, NIR images were obtained after isolating the heart.

[4] = test system: etoposide-treated apoptotic A549 cells; assay: Microscopic observation of binding of the peptide to apoptotic cells, A549 (Example 9-1); type: cell-based, human
Description: Cells were cultured in chamber slide (Nunc) and treated with 50 μM etoposide (Sigma) for 16 hours (A549 cells) or 50 ng/ml trail (R&D Systems) for 16 hours (MDA-MB231 cells) to induce apoptosis. The cells were cultured in RMPI-1640 medium (A549 cells) or DMEM-High (MDA-MB231 cells) containing antibiotics (penicillin and streptomycin) and 10% FBS. All the cells were sub-cultured every 3 or 4 days. The apoptosis-induced apoptotic cells were washed with PBS and blocked with 1% BSA at 37° C. for 30 minutes. Then, the cells were reacted with 10 μM of the peptide labeled with fluorescein, at 4° C. for 1 hour. After washing, the cells were reacted with an annexin V reaction buffer containing Alexa594-labeled annexin V (Invitrogen) at room temperature for 15 minutes. The cells were washed with PBS and then fixed with 4% paraformaldehyde for 5 minutes. After treatment with a mounting solution containing the DAPI nuclear stain, images of the cells were obtained under a fluorescence microscope.

[5] = test system: etoposide-treated apoptotic A549 cells; assay: FACS analysis of binding to apoptotic cells (Example 9-3); type: cell-based, human
Description: As another way of confirming the binding of the polypeptide of the present invention (ApoPep-2) to apoptotic cells, apoptotic cells were treated with the peptide, labeled with fluorescein, and the binding was confirmed through FACS analysis. First, apoptosis was induced by treating A549 cells with 50 μM etoposide for 20 hours. The apoptotic cells or normal cells were reacted with ApoPep-2 (10 μM) or a control peptide at the same concentration, labeled with fluorescein, at 4° C. or 37° C. for 1 hour. Further, the cells were reacted with fluorescein-labeled annexin V at room temperature for 15 minutes. After washing cells with PBS, FACS analysis was performed using a FACS instrument (Becton Dickinson).

[6] = test system: A549 tumor xenotransplanted in nude mice; assay: In vivo fluorescence imaging of targeting of apoptotic cells in tumor (Example 10); design: species or system mouse; settings: fluorescein-labeled; large tumor (1 cm or larger)
[7] = etoposide-treated apoptotic cells

Substance | labeling of normal cells not treated with etoposide ([1]; 10 μM fluorescein-labeled peptide 4° C. 1 hour, Alexa594-annexin V) | labeling of etoposide-treated apoptotic cells (fluorescence microscopy) ([1]; 50 μM etoposide, 10 μM fluorescein-labeled peptide 4° C. 1 hour, Alexa594-annexin V room temperature 15 minutes) | location of peptide binding relative to annexin V binding (merge) [1, 7] | NIR fluorescence imaged from the back, normal mouse ([2]; Cy7.5-labeled peptide 50 μM) | NIR fluorescence imaged from the back, arteriosclerotic mouse, compared with control peptide ([2]; Cy7.5-labeled peptide 50 μM, tail vein, two hours later) | NIR fluorescence after exposing the aorta by cutting the abdomen open, compared with control peptide ([2]; arteriosclerotic mouse) | intensity of the fluorescence relative to the control peptide ([2]; arteriosclerotic mouse, back image (FIG. 8B)) | NIR fluorescence of the heart portion, myocardial ischemic rat versus control group (Sham) rat [3] | labeling of A549 cells not treated with etoposide ([4]; 10 μM peptide 4° C. 1 hour, Alexa594-annexin V) | labeling of etoposide-treated apoptotic A549 cells ([4]; 50 μM etoposide 16 hours, 10 μM fluorescein-labeled peptide 4° C. 1 hour, Alexa594-annexin V) | location of peptide binding relative to annexin V binding (merge), A549 [4, 7] | binding to normal cells (FACS) ([5]; A549 without etoposide, 10 μM, 4° C. or 37° C.) | cells bound to the peptide at 4° C. ([5]; etoposide 20 hours, peptide 10 μM, 4° C. 1 hour) [%] | cells bound to the peptide at 37° C. ([5]; etoposide 20 hours, peptide 10 μM, 37° C. 1 hour) [%] | fluorescence signal from the tumor at 5 hours [6]
CQRPPR (also: fluorescein or Cy7.5 label) [ApoPep-1, peptide CQRPPR screened for macrophages; used fluorescein- or Cy7.5-labeled] | no labeling was observed | labeling was observed | at the same locations | almost nonexistent | stronger NIR fluorescence | much stronger | about two times that of the control peptide | much stronger NIR fluorescence | – | – | – | – | – | – | –
CSVAPR (also: fluorescein or Cy7.5 label) [ApoPep-2, peptide CSVAPR screened for endothelial cells; used fluorescein- or Cy7.5-labeled] | – | – | – | – | – | – | – | – | hardly bound to the untreated cells; also recorded: no labeling was observed | strongly bound to the apoptotic cells; also recorded: labeling was observed | at the same locations | almost nonexistent or minimal | 28 | 48 | strong fluorescence signal
